Test results published in patent publication US20240043928A1, “BIOMARKERS FOR MYELODYSPLASTIC SYNDROME (MDS) AND METHODS OF USING THE SAME” (Eisai R&D Management Co., Ltd., priority 2020, published 2024).
Read-outs that look alike come from different tables or passages of the source.

Key:
[1] = Phase I study NCT02841540: plasma pharmacokinetics; type: in vivo, human; conditions: for Cmax / half-life / AUC(0-t) / Tmax: human, plasma; for Cmax / half-life / AUC(0-t): geometric mean (CV %); for AUC(0-t): read-out: AUC0-24; for Tmax: median
Description: (§1) Plasma samples for PK analyses were collected during Cycle 1 on Day 1 and Day 4 (pre-dose and 0.5, 1, 2, 4, 6, 8, 10, and 24 hours post-dose), and pre-dose and 4 hours post-dose on Cycle 1 on Day 15. PK analyses were conducted using Phoenix® VVinNonlin. For pharmacodynamic and biomarker analyses, peripheral blood samples were collected into PAXgene® Blood RNA Tubes (BD Biosciences, San Jose, California) at Cycle 1 Day 1 (pre-dose and 1, 2, 4, 10 and 24 hours post-dose) for all patients. RNA was extracted using Maxwell® simplyRNA Blood Kit (Promega, Madison, Wisconsin). Target engagement (i.e., splicing modulation) was measured by assessing relative expression of representative pre- and mature-mRNA or aberrant and canonical transcripts at post-dose time points comparing to pre-dose, using a customized Nanostring nCounter gene expression panel (NanoString Technologies, Seattle, Washington). For splicing mutation analysis, peripheral blood was collected into PAXgene® Blood DNA Tubes (BD Biosciences, San Jose, California). Baseline splicing mutations were identified using the Focus:Myeloid™ Next Generation Sequencing (NGS) panel determined centrally by Cancer Genetics Inc. (Rutherford, NJ). Biomarker analyses of pretreatment samples were conducted using one-way ANOVA and MedCalc® software. Receiver-Operating-Characteristics (ROC) curves were performed according to the methodology described by Hanley and McNeil (Radiology. 1982;143(1):29-36; see also Zweig and Campbell, Clin Chem. 1993;39(4):561-577).

[2] = test system: TMEM14C AJ/CJ ratio and other splicing markers; experiment: Phase I study NCT02841540: pharmacodynamics, splicing markers in peripheral blood (Nanostring nCounter panel); type: in vivo, human
Description: as §1

[3] = test system: patients with myelodysplastic syndrome (MDS), chronic myelomonocytic leukemia (CMML), or acute myeloid leukemia (AML); experiment: Phase I study NCT02841540: clinical response and transfusion independence; type: in vivo, human
Description: Clinical responses were assessed using the 2006 International Working Group (IWG) response criteria for MDS (Cheson et al. Blood. 2006;108:419-425), the IWG 2003 criteria for AML, and the 2015 international consortium proposal of uniform response criteria for myelodysplastic/myeloproliferative neoplasms (MDS/MPN) and CMML (Savona et al. Blood. 2015;125(12):1857-1865). Peripheral blood sampling, bone marrow aspirates, bone marrow biopsies, marrow cytogenetics, and cellular composition by flow cytometry were performed at the time of screening, and after Cycles 1, 2, and 4. Beyond Cycle 4, bone marrow aspirates were performed as clinically indicated based on changes in peripheral blood count, or as needed to establish either complete response or disease progression. An independent central confirmation and interpretation was performed for disease assessments.

[4] = test system: human acute myeloid leukemia (AML) cell lines, including mutant U2AF1, SRSF2, and SF3B1 cells; conditions: panel of human AML cell lines incl. mutant U2AF1, SRSF2, SF3B1 cells; cited from earlier work
[5] = patients who experienced RBC TI
[6] = patient: CMML, IPSS Lower, starting dose 7 mg
[7] = patient: MDS (baseline Hb 9.1 g/dL), IPSS Lower, starting dose 5 mg
[8] = patient: MDS, IPSS Higher, starting dose 2 mg
[9] = patient: MDS, IPSS Higher, starting dose 7 mg
[10] = patient: MDS, IPSS Lower, donor one, starting dose 7 mg
[11] = patient: MDS, IPSS Lower, starting dose 2 mg (7 mg during last two RBC TI periods)
[12] = patient: MDS, IPSS Lower, starting dose 3.5 mg
[13] = patient: MDS/MPN (RARS-T), IPSS Lower, starting dose 2 mg

## C/C(=C\C=C\[C@@H](C)c1ccccn1)[C@H]1OC(=O)C[C@H](O)CC[C@@](C)(O)[C@@H](OC(=O)N2CCN(C)CC2)/C=C/[C@@H]1C [Compound 1, (2S,3S,4E,6S,7R,10R)-7,10-dihydroxy-3,7-dimethyl-12-oxo-2-[(2E,4E,6R)-6-(pyridine-2-yl)hepta-2,4-dien-2-yl]oxacyclododec-4-en-6-yl-4-methylpiperazine-1-carboxylate]
[1]; oral, 1.0 mg once daily
  Cmax: 0.835 ng/mL
  half-life: 5.1 h
  AUC(0-t): 4.89 ng·h/mL
  Tmax: 2 h
[1]; oral, 2.0 mg once daily
  Cmax: 1.09 ng/mL
  half-life: 5.4 h
  AUC(0-t): 8.39 ng·h/mL
  Tmax: 2 h
[1]; oral, 3.5 mg once daily
  Cmax: 2.78 ng/mL
  half-life: 5.4 h
  AUC(0-t): 15.6 ng·h/mL
  Tmax: 1.5 h
[1]; oral, 5.0 mg once daily
  Cmax: 3.94 ng/mL
  half-life: 5.8 h
  AUC(0-t): 24.5 ng·h/mL
  Tmax: 1 h
[1]; oral, 7.0 mg once daily
  Cmax: 9.61 ng/mL
  half-life: 5.3 h
  AUC(0-t): 39.4 ng·h/mL
  Tmax: 1 h
[1]; oral, 10 mg once daily
  Cmax: 12.7 ng/mL
  half-life: 5.5 h
  AUC(0-t): 51 ng·h/mL
  Tmax: 1 h
[1]; oral, 12 mg once daily
  Cmax: 12.2 ng/mL
  half-life: 5.4 h
  AUC(0-t): 64.7 ng·h/mL
  Tmax: 2 h
[1]; oral, 14 mg once daily
  Cmax: 25.6 ng/mL
  half-life: 5.1 h
  AUC(0-t): 108 ng·h/mL
  Tmax: 1 h
[1]; oral, 40 mg once daily
  Cmax: 73.3 ng/mL
  half-life: 4.5 h
  AUC(0-t): 265 ng·h/mL
  Tmax: 0.5 h
[1]; 20 mg once daily
  Cmax: 33.6 ng/mL
  half-life: 5.1 h
  AUC(0-t): 142 ng·h/mL
  Tmax: 0.75 h
[1]; 30 mg once daily
  Cmax: 34.4 ng/mL
  half-life: 5.3 h
  AUC(0-t): 159 ng·h/mL
  Tmax: 1.25 h
[1]; preliminary PK analysis
  absorption: rapidly absorbed
  dose dependence of plasma exposure: dose-proportional increase in plasma exposure
[1]; preliminary population PK modeling
  inter-individual variability on clearance/bioavailability: about 34%
[2]; PBMC samples, NanoString probes, 61 splicing markers
  modulation of splicing markers post-dosing: general modulation of splicing markers post-dosing was observed
[2]; heat map, FIG. 5
  modulation of relative expression of splicing markers: dose-dependent modulation
[2]; [5]
  change of the TMEM14C AJ/CJ ratio with dosing: Downregulation
  time of nadir of the TMEM14C AJ/CJ ratio: 2 to 10 h
[3]; 4 patients with SF3B1 mutations and a diagnosis of AML
  RBC TI periods: No RBC TI periods were observed
[3]; 5 of the 7 MDS patients with pre-treatment TMEM14C AJ/CJ >4.01
  patients who experienced events of RBC TI: 71%
[3]; 5 of the 20 patients with missense SF3B1 mutations at study entry
  patients who experienced RBC TI events: 25%
[3]; 9 of 62 patients transfusion dependent at study entry, as of April 2020, all Schedule I
  patients with intervals of >56 days without RBC transfusions: 15%
[3]; CMML (1 subject)
  RBC TI rate: 25%
[3]; MDS (8 cases)
  RBC TI rate: 19%
[3]; all patients
  complete or partial responses meeting 2006 IWG criteria: No complete or partial responses
[3]; human, in vivo
  Median duration of RBC TI: 13 weeks
  Median time to onset of RBC TI: 15 weeks
  additional RBC TI cases, transfusion dependence prior to study entry not verified: Two additional patients (1 AML, 1 MDS) experienced RBC TI periods of >56 days
[3]; in the 4 subjects with CMML
  clinical benefit (platelet response) (MDS/MPN criteria): 1
  complete cytogenetic remission (MDS/MPN criteria): 1
[3]; of the patients with RBC TI
  patients who experienced RBC TI at the 7 mg dose: Four of the 9
  patients whose first RBC TI initiated in weeks 1-24 of the study: 8 of the 9
[3]; one higher risk MDS patient, 7 mg, Schedule II
  platelet transfusion independence without RBC TI: 22 week
[3]; [6]
  Longest RBC TI Period: 66 days
  Number of RBC TI Periods: 1
  Time to First RBC TI: 4 days
[3]; [7]
  Longest RBC TI Period: 87 days
  Number of RBC TI Periods: 1
  Time to First RBC TI: 398 days
[3]; [8]
  Longest RBC TI Period: 121 days
  Number of RBC TI Periods: 1
  Time to First RBC TI: 126 days
[3]; [9]
  Longest RBC TI Period: 107 days
  Number of RBC TI Periods: 1
  Time to First RBC TI: 104 days
[3]; [10]
  Longest RBC TI Period: 98 days
  Number of RBC TI Periods: 4
  Time to First RBC TI: 73 days
[3]; [11]
  Longest RBC TI Period: 85 days
  Number of RBC TI Periods: 5
  Time to First RBC TI: 88 days
[3]; [12]
  Longest RBC TI Period: 98 days
  Number of RBC TI Periods: 2
  Time to First RBC TI: 101 days
[3]; [13]
  Longest RBC TI Period: 56 days
  Number of RBC TI Periods: 1
  Time to First RBC TI: 111 days
[3]; the CMML patient with RBC TI
  period of platelet transfusion independence: 21 week
[4]
  growth inhibitory activity: shows growth inhibitory activity
